Experimental data: US7012093B2, “Multiple fluorescent natural dye compound from a marine organism and method of use thereof” (Council of Scientific & Industrial Research, priority 2001, dated 2006)
“Also recorded” adds a separate entry of the source.

Tests used:
E. coli (wild type) = experiment: Anti-microbial test (zone of inhibition, filter paper disk on seeded agar); format: cell-based; details: 10 mg/ml of the sample soaked in filter paper disks, 37° C., 24 hours
Method: In yet another embodiment, anti-microbial test of the compound cum dye is done. […] As the marine dye is, a phenolic compound and phenolic compounds are generally having Anti-microbial activity, the anti-microbial assay was performed with this compound and the zone of inhibition was observed. E. coli (wild type) culture was grown overnight in MacConkey's broth 50 ml in a conical flask (100 ml). Antibiotic assay agar medium was prepared and sterilized. It was then brought to a temperature of 50 degree centigrade and 1 ml of E. coli (wild type) culture was added to it. The culture was mixed with antibiotic assay agar medium and was allowed to solidify. 10 mg/ml of the sample was prepared and soaked in filter paper disks. It was then placed upon the said antibiotic assay agar medium seeded with E. coli. It was then incubated at 37° C. in an incubator for 24 hours.

[1] = Solubility of the compound; format: physicochemical; details: for solubility in organic solvents: ethanol, methanol, acetone
[2] = Stability of the compound cum dye at the sub zero temperatures; format: physicochemical
Source text: In yet another embodiment stability of the compound cum Dye at the sub Zero temperatures is seen. The compound in its diluted form 5×10^−6 was taken in a microfuge tube and kept at −20 degree centigrade and seen in the frozen state under UV light.
The compound in its diluted form 5×10^−6 was taken in a microfuge tube and kept at −20 degree centigrade and seen in the frozen state under UV light.

ticks/fleas of dogs = experiment: Veterinary remedy: killing ticks/fleas of dogs; format: in vivo, ticks and fleas
Source text: In yet another embodiment, the utility of the dye as a Veterinary remedy for ticks and fleas of pets is seen. The extract is used as veterinary remedy for killing ticks/fleas of dogs. 5×10^−6 concentration of dye in 1:200 dilutions killed ticks and fleas in less than 20 seconds. The extract was used as veterinary remedy for killing ticks/fleas of dogs. 5×10^−8 concentration of the purified compound cum dye killed ticks and fleas in less than 20 seconds.

[3] = pH of the compound and pH sensitivity of emissions; format: physicochemical
Method: (§1) The pure hydrogen form of the compound is having the pH of 2.8. The salt form of the compound is stable up to 300° C. without the change of physical and chemical characters. The compound in aqueous solution in a very diluted form (5×10^−6 concentration) is pale yellow in color with the naked eye and the concentrated solution is reddish brown in color.
The dye has a pH of 2.8 and their spectral emissions are not affected at different pH range i.e. from pH 2.8–8.0.

[4] = Biosurfactant nature (shaking of solutions); format: physicochemical; details: 0.001 mg–0.01 mg per ml solutions
ants = experiment: Pesticidal effect (filter paper soaked in the dye); format: in vivo; details: filter paper soaked in the dye left on the workbench; next day full of dead ants
Source text: In yet another embodiment, the pesticidal effect of the compound cum dye is noticed. […] The filter paper soaked in the dye was left unattended on the workbench. Next day it was noticed full of dead ants. […] The filter paper soaked in the dye was left unattended on the workbench. Next day it was noticed full of dead ants.

[5] = Stability check of the dye (temperature, shelf life, light); format: physicochemical
Method: as §1
The compound retained its stability for about a year without any contamination or chemical decay.

Q: What does the source list for “Phenolic sulphated silicated polysaccharide [PSSP-1]”?
A: zone of inhibition (E. coli (wild type); listed as compound cum dye): zone of inhibition is observed; zone of inhibition (E. coli (wild type); listed as dye): Zone of inhibition surrounding the filter disk was observed; solubility in organic solvents [1]: insoluble in the organic solvents including ethanol, methanol and acetone; solubility in organic solvents ([1]; listed as dye): insoluble in the organic solvents like ethanol, methanol and acetone; solubility in water [1]: soluble in water; solubility in water ([1]; listed as dye): more than the solubility characters of Fluorescein; also recorded: highly water-soluble; fluorescence in the frozen state ([2]; diluted form 5×10^−6, −20 degree centigrade, under UV light): persisted without any deterioration; fluorescence after freezing in liquid nitrogen ([2]; frozen in the liquid nitrogen): remained unaffected; time to kill ticks and fleas (ticks/fleas of dogs; 5×10^−6 concentration of dye in 1:200 dilutions): less than 20 seconds; time to kill ticks and fleas (ticks/fleas of dogs; 5×10^−8 concentration of the purified compound cum dye): less than 20 seconds; pH [3]: 2.8; effect of pH on spectral emissions ([3]; pH 2.8–8.0): not affected; frothing on shaking [4]: frothing was seen; frothing on shaking ([4]; listed as dye): frothing is seen; toxicity to insects (ants): toxic to insects; photolysis after light treatment ([5]; exposure to light, listed as dye): does not undergo photolysis after exposure to light; also recorded: did not undergo photolysis after light treatment; temperature up to which the dye is stable (no alteration of the spectral property) ([5]; heating, fluorescent spectral properties unchanged): up to 300 degree Centigrade; duration of retained stability without contamination or chemical decay ([5]; room temperature): about a year; persistence of fluorescence at the room temperature ([5]; room temperature): at least 1 year; duration of retained stability without contamination or chemical decay ([5]; room temperature, listed as dye): above a year
